Experimental findings from PMC10269561, “Absence of Clinically Meaningful Drug-Drug Interactions with Rezafungin: Outcome of Investigations” (Microbiology Spectrum, 2023) are described below.

Data set [1] addresses human MATE2-K (Homo sapiens, UniProt Q86VL8). The experiment in a line: NC-152 transporter inhibition, MATE2-K. As to conditions: in vitro cell test system. Type of data set: in vitro ADME. From the text: (§1) Microbiology Spectrum Supplementary materials
(§2) Table S 4Summary of initial in vitro assessments […]
(§3) whether rezafungin can induce CYP isoforms 1A2, 2B6, or 3A4. mRNA expression) of CYP1A2 and CYP2B6, and, in the case of […]
(§4) Abbreviations: ABC = ATP binding cassette; BCRP = breast cancer resistance protein; BSEP = bile salt export pump; CYP = cytochrome P450; MATE = multidrug and toxic compound extrusion; MDCK = Madin-Darby canine kidney; MDR = multidrug resistance protein; mRNA = messenger ribonucleic acid; OAT = organic anion transporter; OATP = organic anion transporter protein; OCT – organic cation transporter; OCTN = organic cation transporter novel; P-gp = P-glycoprotein; SLC = solute carrier.

For data set [2], the target named is human OAT1 (Homo sapiens, UniProt Q4U2R8). The experiment in a line: NC-152 transporter inhibition, OAT1. Type of data set: in vitro ADME. As to conditions: in vitro cell test system.
Sequence of human OAT1 (Q4U2R8 whole entry): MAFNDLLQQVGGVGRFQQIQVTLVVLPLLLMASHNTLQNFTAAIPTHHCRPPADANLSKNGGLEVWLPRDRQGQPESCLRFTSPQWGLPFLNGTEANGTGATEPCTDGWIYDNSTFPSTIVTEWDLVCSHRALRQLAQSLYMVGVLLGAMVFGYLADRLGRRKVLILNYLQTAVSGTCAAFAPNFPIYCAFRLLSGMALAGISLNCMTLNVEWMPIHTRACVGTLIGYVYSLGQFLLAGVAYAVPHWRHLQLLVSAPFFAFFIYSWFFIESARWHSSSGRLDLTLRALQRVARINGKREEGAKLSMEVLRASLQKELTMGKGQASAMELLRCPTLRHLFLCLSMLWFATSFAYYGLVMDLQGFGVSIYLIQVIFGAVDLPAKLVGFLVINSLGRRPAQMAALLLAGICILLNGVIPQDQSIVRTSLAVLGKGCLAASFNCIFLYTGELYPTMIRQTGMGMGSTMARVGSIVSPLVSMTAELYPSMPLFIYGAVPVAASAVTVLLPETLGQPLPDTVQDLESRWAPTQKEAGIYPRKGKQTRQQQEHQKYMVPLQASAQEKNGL
Description: as §1, §2, §3, §4

The target of data set [3] is CYP2C9 (Homo sapiens, UniProt P11712). The experiment in a line: NC-012 CYP450 inhibition screening, recombinant CYP2C9. The conditions noted are these: 10 μM, fluorogenic substrate, recombinant human CYP. Type of data set: in vitro ADME.
Sequence of CYP2C9 (P11712 whole entry): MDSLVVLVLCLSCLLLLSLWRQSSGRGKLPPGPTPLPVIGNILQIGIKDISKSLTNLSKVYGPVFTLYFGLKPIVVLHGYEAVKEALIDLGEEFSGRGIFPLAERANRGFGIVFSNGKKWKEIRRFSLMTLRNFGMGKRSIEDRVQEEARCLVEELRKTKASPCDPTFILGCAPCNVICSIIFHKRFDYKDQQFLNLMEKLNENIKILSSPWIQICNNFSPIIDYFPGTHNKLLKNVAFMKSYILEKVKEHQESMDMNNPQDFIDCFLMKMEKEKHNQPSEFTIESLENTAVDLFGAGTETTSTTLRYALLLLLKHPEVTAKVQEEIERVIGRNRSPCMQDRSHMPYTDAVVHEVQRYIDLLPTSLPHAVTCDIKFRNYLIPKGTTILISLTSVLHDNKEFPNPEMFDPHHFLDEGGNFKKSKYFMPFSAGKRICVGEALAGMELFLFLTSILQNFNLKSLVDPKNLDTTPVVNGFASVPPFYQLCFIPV
Description: as §1, §2, §3, §4

For data set [4], the target named is MRP2 (Homo sapiens, UniProt Q92887). The experiment in a line: NC-160 substrate interaction, MRP2. Type of data set: in vitro ADME. As to conditions: efflux (ABC) transporter.
Sequence of MRP2 (Q92887 whole entry): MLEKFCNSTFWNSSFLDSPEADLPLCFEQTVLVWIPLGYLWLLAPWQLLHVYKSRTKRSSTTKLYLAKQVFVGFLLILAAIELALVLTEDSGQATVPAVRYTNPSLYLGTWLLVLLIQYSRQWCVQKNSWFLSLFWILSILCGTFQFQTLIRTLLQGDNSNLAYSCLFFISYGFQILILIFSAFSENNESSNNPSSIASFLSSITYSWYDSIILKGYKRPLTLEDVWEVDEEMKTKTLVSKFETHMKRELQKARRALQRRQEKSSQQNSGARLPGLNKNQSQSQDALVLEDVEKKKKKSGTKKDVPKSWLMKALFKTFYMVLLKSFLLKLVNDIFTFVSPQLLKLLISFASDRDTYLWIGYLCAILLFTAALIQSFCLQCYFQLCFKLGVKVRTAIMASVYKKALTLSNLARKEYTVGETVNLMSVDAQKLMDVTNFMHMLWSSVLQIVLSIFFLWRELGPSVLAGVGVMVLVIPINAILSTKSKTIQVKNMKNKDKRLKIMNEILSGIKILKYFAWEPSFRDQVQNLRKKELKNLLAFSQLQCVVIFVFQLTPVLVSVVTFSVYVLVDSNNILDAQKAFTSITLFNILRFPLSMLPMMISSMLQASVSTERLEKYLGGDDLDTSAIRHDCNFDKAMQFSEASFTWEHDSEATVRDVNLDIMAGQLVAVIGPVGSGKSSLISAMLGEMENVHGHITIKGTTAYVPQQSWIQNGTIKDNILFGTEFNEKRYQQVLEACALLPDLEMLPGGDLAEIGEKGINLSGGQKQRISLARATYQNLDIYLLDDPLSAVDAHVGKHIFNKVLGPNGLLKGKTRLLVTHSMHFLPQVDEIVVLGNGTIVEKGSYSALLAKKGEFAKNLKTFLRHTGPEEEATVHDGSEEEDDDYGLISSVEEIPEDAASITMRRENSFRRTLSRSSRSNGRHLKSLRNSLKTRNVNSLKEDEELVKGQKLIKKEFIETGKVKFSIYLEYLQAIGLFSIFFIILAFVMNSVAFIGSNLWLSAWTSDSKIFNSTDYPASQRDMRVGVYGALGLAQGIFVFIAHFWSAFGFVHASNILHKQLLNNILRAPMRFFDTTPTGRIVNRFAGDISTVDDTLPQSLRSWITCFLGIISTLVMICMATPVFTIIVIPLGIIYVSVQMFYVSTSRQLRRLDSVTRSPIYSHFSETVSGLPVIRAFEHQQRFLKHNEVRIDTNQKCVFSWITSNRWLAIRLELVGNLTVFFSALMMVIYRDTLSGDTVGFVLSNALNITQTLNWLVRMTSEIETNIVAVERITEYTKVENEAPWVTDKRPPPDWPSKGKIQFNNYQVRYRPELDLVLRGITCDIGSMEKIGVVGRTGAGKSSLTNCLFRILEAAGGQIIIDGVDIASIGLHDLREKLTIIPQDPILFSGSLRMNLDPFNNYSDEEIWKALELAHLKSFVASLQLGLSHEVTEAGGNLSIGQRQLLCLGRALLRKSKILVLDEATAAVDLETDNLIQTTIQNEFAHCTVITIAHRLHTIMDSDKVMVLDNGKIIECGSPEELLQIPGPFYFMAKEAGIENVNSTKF
Description: as §1, §2, §3, §4

The target in data set [5] is T1, BCRP (Homo sapiens, UniProt Q9UNQ0). Nature of the data set: NC-160 substrate interaction, BCRP. Type of data set: in vitro ADME. The conditions noted are these: efflux (ABC) transporter.
T1 sequence (Q9UNQ0 whole entry): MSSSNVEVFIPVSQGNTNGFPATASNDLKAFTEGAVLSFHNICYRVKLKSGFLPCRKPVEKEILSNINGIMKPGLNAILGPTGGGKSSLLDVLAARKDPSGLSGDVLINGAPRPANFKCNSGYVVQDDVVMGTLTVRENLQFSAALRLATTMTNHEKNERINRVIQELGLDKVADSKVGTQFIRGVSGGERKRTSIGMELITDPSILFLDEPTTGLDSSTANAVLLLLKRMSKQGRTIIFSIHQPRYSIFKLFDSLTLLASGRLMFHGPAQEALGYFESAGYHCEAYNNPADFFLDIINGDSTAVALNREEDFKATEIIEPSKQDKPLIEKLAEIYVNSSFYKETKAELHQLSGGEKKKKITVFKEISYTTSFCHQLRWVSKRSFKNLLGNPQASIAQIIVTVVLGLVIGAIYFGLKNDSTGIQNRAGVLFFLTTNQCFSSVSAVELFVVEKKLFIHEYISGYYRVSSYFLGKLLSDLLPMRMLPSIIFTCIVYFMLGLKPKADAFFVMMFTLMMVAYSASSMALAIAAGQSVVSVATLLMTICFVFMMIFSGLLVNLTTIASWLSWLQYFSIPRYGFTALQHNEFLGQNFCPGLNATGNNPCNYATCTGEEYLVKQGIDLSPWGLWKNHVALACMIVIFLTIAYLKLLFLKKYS
Description: as §1, §2, §3, §4

In data set [6] the target is T2, CYP2C19 (Homo sapiens, UniProt P33261). Nature of the data set: NC-153 time-dependent inhibition in human liver microsomes, CYP2C19. Type of data set: in vitro ADME. The conditions noted are these: 0.1 to 25 μM.
T2 sequence (P33261 whole entry): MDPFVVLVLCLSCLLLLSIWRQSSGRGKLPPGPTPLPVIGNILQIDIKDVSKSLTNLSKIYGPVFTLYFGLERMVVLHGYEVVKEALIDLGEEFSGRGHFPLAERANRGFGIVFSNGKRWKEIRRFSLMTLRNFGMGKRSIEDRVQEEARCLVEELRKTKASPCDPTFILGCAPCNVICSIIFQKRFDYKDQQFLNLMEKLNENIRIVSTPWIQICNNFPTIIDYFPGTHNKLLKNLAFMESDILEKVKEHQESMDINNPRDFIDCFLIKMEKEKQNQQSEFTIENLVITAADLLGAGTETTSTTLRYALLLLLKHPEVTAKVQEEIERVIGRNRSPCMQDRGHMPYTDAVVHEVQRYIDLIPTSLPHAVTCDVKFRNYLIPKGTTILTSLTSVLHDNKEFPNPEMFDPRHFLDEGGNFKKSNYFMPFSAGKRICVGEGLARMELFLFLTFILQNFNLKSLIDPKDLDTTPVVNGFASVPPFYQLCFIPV
Description: as §1, §2, §3, §4
For orientation: Microsomes from liver hold many membrane-bound enzymes, among them those of drug oxidation.

Data set [7] deals with T3, OCT1 (Homo sapiens, UniProt O15245).
T3 sequence (O15245 1-554): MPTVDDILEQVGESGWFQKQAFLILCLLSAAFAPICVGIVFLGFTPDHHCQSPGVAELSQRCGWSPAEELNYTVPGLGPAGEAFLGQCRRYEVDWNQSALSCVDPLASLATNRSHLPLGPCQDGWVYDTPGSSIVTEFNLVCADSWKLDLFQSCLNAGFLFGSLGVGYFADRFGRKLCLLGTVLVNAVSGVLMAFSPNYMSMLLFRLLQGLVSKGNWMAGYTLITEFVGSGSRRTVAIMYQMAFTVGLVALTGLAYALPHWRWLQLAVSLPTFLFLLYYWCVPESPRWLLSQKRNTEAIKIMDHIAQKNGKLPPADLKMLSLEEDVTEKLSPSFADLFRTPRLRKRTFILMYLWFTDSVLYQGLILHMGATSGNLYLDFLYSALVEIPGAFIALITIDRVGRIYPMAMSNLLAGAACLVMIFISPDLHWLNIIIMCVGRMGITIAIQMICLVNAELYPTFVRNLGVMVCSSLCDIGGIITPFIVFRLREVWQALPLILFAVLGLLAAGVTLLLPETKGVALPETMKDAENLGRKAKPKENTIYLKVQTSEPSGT
Nature of the data set: NC-152 transporter inhibition, OCT1. Type of data set: in vitro ADME. From the text:
(§5) Abbreviations: ABC = ATP binding cassette; BCRP = breast cancer resistance protein; BSEP = bile salt export pump; CYP = cytochrome P450; MATE =
(§6) multidrug and toxic compound extrusion; MDCK = Madin-Darby canine kidney; MDR = multidrug resistance protein; mRNA = messenger ribonucleic acid;
(§7) OAT = organic anion transporter; OATP = organic anion transporter protein; OCT – organic cation transporter; OCTN = organic cation transporter novel; P-gp =
(§8) P-glycoprotein; SLC = solute carrier.

The target of data set [8] is human OATP1B1 (Homo sapiens, UniProt Q9Y6L6). The experiment in a line: NC-052 OATP1B1 substrate study in transiently transfected HEK293 cells. Type of data set: in vitro ADME.
Sequence of human OATP1B1 (Q9Y6L6 whole entry): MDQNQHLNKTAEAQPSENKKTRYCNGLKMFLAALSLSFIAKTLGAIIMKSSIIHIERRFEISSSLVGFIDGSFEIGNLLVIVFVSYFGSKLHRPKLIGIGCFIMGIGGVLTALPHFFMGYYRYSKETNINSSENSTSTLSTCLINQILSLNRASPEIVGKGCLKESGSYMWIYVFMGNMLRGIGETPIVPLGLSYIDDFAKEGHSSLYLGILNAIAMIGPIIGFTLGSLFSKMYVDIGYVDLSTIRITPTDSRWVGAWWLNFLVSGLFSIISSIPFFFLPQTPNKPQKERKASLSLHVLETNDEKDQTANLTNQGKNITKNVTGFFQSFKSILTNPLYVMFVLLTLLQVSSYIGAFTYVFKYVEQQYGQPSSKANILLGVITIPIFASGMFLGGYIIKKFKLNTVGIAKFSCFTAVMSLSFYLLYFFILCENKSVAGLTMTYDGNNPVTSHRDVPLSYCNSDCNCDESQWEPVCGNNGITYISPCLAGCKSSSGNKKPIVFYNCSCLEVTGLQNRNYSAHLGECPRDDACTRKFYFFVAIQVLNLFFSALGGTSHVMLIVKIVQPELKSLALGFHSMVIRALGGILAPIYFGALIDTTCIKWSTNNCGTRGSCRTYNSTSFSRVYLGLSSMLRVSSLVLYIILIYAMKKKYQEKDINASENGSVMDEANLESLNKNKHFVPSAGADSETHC
Description: as §1, §2, §3, §4

In data set [9] the target is CYP1A2 (Homo sapiens, UniProt P05177). The experiment in a line: NC-012 CYP450 inhibition screening, recombinant CYP1A2. Type of data set: in vitro ADME. As to conditions: 10 μM, fluorogenic substrate, recombinant human CYP.
Description: as §1, §2, §3, §4

In data set [10] the target is T1, BCRP. Nature of the data set: NC-049 BCRP substrate potential in Caco-2 monolayers. Type of data set: in vitro ADME. The conditions noted are these: with/without inhibitors.
Description: as §1, §2, §3, §4

Data set [11] deals with BSEP (Homo sapiens, UniProt O95342). Nature of the data set: NC-152 BSEP inhibition in membrane vesicles. Type of data set: in vitro ADME.
Description: as §1, §2, §3, §4

A short description of data set [12]: Study 1 safety and tolerability (TEAEs). Type of data set: in vivo, human. The method, then: After screening, subjects were admitted to the clinical research unit (CRU) prior to the first dose of rezafungin (from day −22) and were discharged from the CRU on day 22. Nine oral substrate drugs were administered as part of a cocktail containing two or more drugs once before and once after receiving rezafungin on a schedule designed to allow the washout of the drugs in the cocktail between doses and limit interactions with other drugs (Fig. 4A). […] A loading dose of rezafungin for injection (600 mg) was administered over 1 h on day 1, followed by two once-weekly 400-mg doses over 1 h on days 10 and 15. Due to a short delay in the availability of the investigation study drug, the second once-weekly dose of rezafungin and the second set of oral substrate drugs were administered on day 10 instead of day 8, although the time between doses remained sufficient for all originally planned PK samplings through 96 h postdose and for the adequate washout of the substrate drugs. The total duration of treatment was up to 89 days, including 45 days of screening and 44 days of treatment in the CRU.
as §1
Table S 2Summary of t reatment-emergent adverse e vents for Study 1
System Organ Class Safety Population Adverse Event Severity(N=26), n Rezafungin Safety Population (N=26), n
Adverse Event Mild Moderate Severe Mild Moderate Severe […]

The target of data set [13] is T2, CYP2C19. The experiment in a line: NC-012 CYP450 inhibition screening, recombinant CYP2C19. Type of data set: in vitro ADME. As to conditions: 10 μM, fluorogenic substrate, recombinant human CYP.
Description: as §1, §2, §3, §4

Data set [14] concerns the target T4, CYP3A4 (Homo sapiens, UniProt P08684).
Description: as §5, §6, §7, §8

Data set [15] concerns the target T4, CYP3A4. Nature of the data set: NC-012 CYP450 inhibition screening, recombinant CYP3A4. Type of data set: in vitro ADME. The conditions noted are these: benzyloxyresorufin substrate, recombinant human CYP.
Description: as §1, §2, §3, §4

Structures are written as SMILES. Numbered stars: 1 amine (or outer) side, 2 acyl side, 3 side chain; on linkers, the order of the positions; unused ones are H or OH. Bridge positions count the residues as written; N and C are the ends. Square brackets hold non-standard residues; d marks the D form. Peptide text beside a SMILES is read from it. * marks the point of attachment. Orn(4R-OH,5R-OCH2CH2NMe3+) = C[N+](C)(C)CCO[C@@H](N[*:3])[C@H](O)C[C@H](N[*:1])C(=O)[*:2]; pTerphenylCO(4''-OnC5H11) = CCCCCOc1ccc(-c2ccc(-c3ccc(C(=O)*)cc3)cc2)cc1; hTyr(3S-OH,4S-OH) = N[C@H](C(=O)O)[C@H](O)[C@@H](O)c1ccc(O)cc1; Pro(3S-OH,4S-Me) = C[C@H]1CN[C@H](C(=O)O)[C@H]1O; Hyp = O=C(O)[C@@H]1C[C@@H](O)CN1

T4 sequence (P08684 whole entry): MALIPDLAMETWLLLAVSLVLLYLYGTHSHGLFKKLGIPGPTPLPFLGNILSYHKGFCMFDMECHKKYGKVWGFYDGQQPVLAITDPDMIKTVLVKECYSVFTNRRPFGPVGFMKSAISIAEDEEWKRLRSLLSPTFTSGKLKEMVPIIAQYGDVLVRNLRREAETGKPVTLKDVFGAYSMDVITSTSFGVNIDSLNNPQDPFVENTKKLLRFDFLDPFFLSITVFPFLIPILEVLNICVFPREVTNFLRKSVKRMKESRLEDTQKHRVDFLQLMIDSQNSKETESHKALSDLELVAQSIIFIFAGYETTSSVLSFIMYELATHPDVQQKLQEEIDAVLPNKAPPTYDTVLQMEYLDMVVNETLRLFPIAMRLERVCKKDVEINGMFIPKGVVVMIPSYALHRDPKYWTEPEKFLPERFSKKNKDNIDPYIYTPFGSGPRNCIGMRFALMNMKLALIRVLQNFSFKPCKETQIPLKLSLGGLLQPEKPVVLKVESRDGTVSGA

Usually IC50 stands for the concentration that inhibits the measured activity by half. What is called inhibition is the share of the control response that was lost under treatment. Take `CCCCCOc1ccc(-c2ccc(-c3ccc(C(=O)N[C@H]4C[C@@H](O)[C@@H](OCC[N+](C)(C)C)NC(=O)[C@@H]5[C@@H](O)[C@@H](C)CN5C(=O)[C@H]([C@@H](C)O)NC(=O)[C@H]([C@H](O)[C@@H](O)c5ccc(O)cc5)NC(=O)[C@@H]5C[C@@H](O)CN5C(=O)[C@H]([C@@H](C)O)NC4=O)cc3)cc2)cc1` [Rezafungin] ({pTerphenylCO(4''-OnC5H11)}-[Orn(4R-OH,5R-OCH2CH2NMe3+)]T[Hyp][hTyr(3S-OH,4S-OH)]T[Pro(3S-OH,4S-Me)]; lactam 1-C): the “inhibitor of probe substrate transport mediated via MATE2-K” value in [1] is on record as “determined to be an inhibitor”. In addition, in data set [2], the “inhibitor of probe substrate transport mediated via OAT1” value is “determined to be an inhibitor”. In [3], the “inhibition of CYP2C9” value is listed as “Minimal inhibition”. For the same compound, the “substrate of MRP2” value in [4] is “not a substrate”. Besides, the “substrate of BCRP” value in [5] and in data set [10] was “not a substrate” each time. The “time-dependent inhibitor of CYP2C19” value in data set [6] is listed as “not a time-dependent inhibitor”. In addition, the “inhibitor of probe substrate transport mediated via OCT1” value in data set [7] (in vitro cell test system, NC-152) was “determined to be an inhibitor”. The half-maximal inhibitory concentration (IC50) was above 6 µM in data set [7] (initial in vitro studies, read-out: IC50, OCT-1 uptake transporter (moderate inhibition)) and above 25 µM in data set [14]. Moreover, the “substrate of OATP1B1” value in data set [8] was “not to be a substrate”. In addition, the “uptake ratio, OATP1B1” value in data set [8] is on record as below 2. Besides, the “inhibition of CYP1A2” value in data set [9] is “Minimal inhibition”. In addition, the “inhibitor of probe substrate transport mediated via BSEP” value in [11] was “not”. Moreover, in [12] (Study 1), the “serious TEAEs, deaths, discontinuations due to a TEAE” value is listed as “no serious TEAEs or deaths or discontinuations due to a TEAE”. Moreover, in [12] (once-weekly i.v. infusions, 600-mg loading dose followed by two 400-mg maintenance doses), the tolerability entry is on record as “generally well tolerated”. Besides, the “inhibition of CYP2C19” value in data set [13] is recorded as “Minimal inhibition”. The inhibition at 10 µM in data set [15] was determined as 81%.
